Measurements reported in US9943529B2, “Methods for reducing cellular proliferation and treating certain diseases” (BRIGHAM YOUNG UNIVERSITY, priority 2013, dated 2018).

Legend:
SW-620 = experiment: NCI screen antiproliferative activity, sulforhodamine B, Colon Cancer panel; type: cell-based, human; conditions: 48 hours, five 10-fold dilutions starting from 100 μM
TK-10 = experiment: cells; conditions: Homo sapiens, TK-10, 48 h
IGROV1 = experiment: cells; conditions: Homo sapiens, IGROV-1, 48 h
HS 578T = experiment: NCI screen antiproliferative activity, sulforhodamine B, Breast Cancer panel; type: cell-based, human; conditions: 48 hours, five 10-fold dilutions starting from 100 μM
NCI-H522 = conditions: 48 hours, five 10-fold dilutions starting from 100 μM
OVCAR-8 = conditions: 48 hours, five 10-fold dilutions starting from 100 μM
SK-MEL-5 = experiment: NCI screen antiproliferative activity, sulforhodamine B, Melanoma panel; type: cell-based, human; conditions: 48 hours, five 10-fold dilutions starting from 100 μM
SF-295 = experiment: cells; conditions: Homo sapiens, SF-295, 48 h
SN12C = conditions: 48 hours, five 10-fold dilutions starting from 100 μM
SNB-19 = experiment: cells; conditions: Homo sapiens, SNB-19, 48 h
CAKI-1 = conditions: 48 hours, five 10-fold dilutions starting from 100 μM
OVCAR-3 = experiment: cells; conditions: Homo sapiens, OVCAR-3, 48 h

## CCCCCCCCNCCC[C@@H](C)[C@H]1CC[C@H]2[C@@H]3[C@H](OCCCN)C[C@@H]4C[C@H](OCCCN)CC[C@]4(C)[C@H]3C[C@H](OCCCN)[C@]12C [CSA-13]
SW-620
  TGI: 2.67 µM
SW-620; Homo sapiens
  GI50: 1.16 µM
TK-10
  GI50: 0.974 µM
TK-10; read-out: LC50
  CC50: > 100 µM
IGROV1
  GI50: 1.44 µM
IGROV1; read-out: LC50
  CC50: 8.67 µM
HS 578T
  TGI: 2.35 µM
HS 578T; Homo sapiens
  GI50: 0.854 µM
NCI-H522
  TGI: 10.5 µM
OVCAR-8
  TGI: 4.01 µM
SK-MEL-5
  TGI: 1.92 µM
SK-MEL-5; Homo sapiens
  GI50: 0.504 µM
SF-295
  GI50: 0.496 µM
SF-295; read-out: LC50
  CC50: 24 µM
SN12C
  TGI: 3.55 µM
SNB-19
  GI50: 1.49 µM
SNB-19; read-out: LC50
  CC50: 89.3 µM
CAKI-1
  TGI: 10.6 µM
OVCAR-3
  GI50: 2.24 µM
OVCAR-3; read-out: LC50
  CC50: 88 µM
